According to US6303366A, “Biodegradation of the gasoline oxygenates” (Envirogen, Inc., priority 1999, dated 2001):

Experiments:
strain ENV425 = experiment: Laboratory-scale membrane bioreactor degradation of MTBE; parameters: species or system Nocardia
Experimental: The BSM feed rate was 1.7 ml/min. to create a hydraulic residence time in the reactor of 2.5 days. The effluent of the reactor passed over the surface of a 100,000 mwt ultra filtration membrane (Model CR250; Raisio Flootek, Molmo, Sweden), at a flow rate of 1.2 to 2.2 ml/min at a pressure of from 1 to 1.5 psi. The retenate containing cells were passed back into the reactor, and the filtrate was discarded as the treated effluent. The reactor was operated at 30° C. at a pH of 7. […] Oxygen concentration within the reactor was monitored by using an Ingold […] and a Cole Palmer model 01971-00 oxygen monitor, and oxygen concentration was maintained at >1% air saturation by adding air or oxygen directly to the reactor.

[1] = test system: anaerobic sediment samples; conditions: the one active sample; more than 152 days of incubation; cited from earlier work

For COC(C)(C)C [MTBE, methyl-tert-butyl ether], the “MTBE added to the reactor removed” value (strain ENV425; 2.5 day hydraulic retention time) is listed as “Greater than 95%”, the “MTBE stripping from the reactor, of the influent MTBE mass” value (strain ENV425; typically) is listed as < 5% and the “transformation of MTBE” value [1] is listed as “about 50%”.
